Laboratory results published in patent US20260258032A1, “TYROSINE KINASE 2 INHIBITORS AND USES THEREOF” (BIOGEN MA INC., priority 2022, published 2026).
Where a name gives a salt, the structure may show the parent alone.

Experiments:
JH2 domain of human Tyk2 = molecular target: T1, JH2 domain of human Tyk2 (Homo sapiens, UniProt P29597); assay: JH2 biochemical assay (TR-FRET probe displacement); assay type: binding
T1 construct: 10×His-tagged TYK2 JH2 domain (amino acid 575-876)
Procedure, shortened: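 A probe-displacement TR-FRET readout: compounds, tested in 3-fold, 10-point dilutions starting at […], compete with 2 nM tracer for 2 nM His-tagged JH2 (residues 575-876) detected by 0.1 nM Tb-anti-His over 60 min. IC50 comes from 4-parameter fits of normalized 520/495 nm ratios.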

[1] = test system: Tyk2 kinase activity on STAT4; assay: pSTAT4 cell assay (MSD, NK92 cells); assay type: cell-based; settings: compounds 1 hr
Procedure, shortened: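 Read-out: phospho-STAT in NK92 lysates, MSD format, anti-STAT4 antibodies. Cells were serum-starved, given compound for 1 hr (10 μM top, four-fold, 10 points) and IL2-stimulated (30 ng/mL, 15 min). Normalized percent activity vs log concentration, 4-parameter logistic fit gave IC50.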

[2] = TR-FRET probe displacement, JH2 domain of human Tyk2

T1 sequence (P29597 575-876): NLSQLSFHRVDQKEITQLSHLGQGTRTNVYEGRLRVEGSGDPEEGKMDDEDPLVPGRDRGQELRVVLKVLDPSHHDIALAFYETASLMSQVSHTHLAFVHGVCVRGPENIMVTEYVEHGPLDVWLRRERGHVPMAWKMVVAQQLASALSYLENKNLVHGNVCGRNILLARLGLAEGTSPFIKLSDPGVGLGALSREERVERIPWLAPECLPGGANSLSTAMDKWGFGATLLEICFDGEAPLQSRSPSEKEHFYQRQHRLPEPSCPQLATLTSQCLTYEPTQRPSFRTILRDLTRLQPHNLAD

Row | Compound | IC50 (JH2 domain of human Tyk2; JH2 biochemical assay) | IC50 ([1]; stimulated 15 minutes) | IC50 (JH2 domain of human Tyk2; [2]) | IC50 ([1]; then stimulated 15 minutes)
1 | COC1CC(c2cc(N3CC4(CC4)c4cnc(NC(C)=O)cc43)nc(C(C)(F)F)n2)C1 (centres unmarked) [Example 23, N-(1′-(2-(1,1-difluoroethyl)-6-(3-methoxycyclobutyl)pyrimidin-4-yl)-1′,2′-dihydrospiro[cyclopropane-1,3′-pyrrolo[3,2-c]pyridin]-6′-yl)acetamid] | ≤ 10 nM | 10 to 100 nM | – | –
2 | CC(=O)Nc1cc2c(cn1)C1(CC1)CN2c1cc(C)nc(N2CCOCC2)n1 [Example 213, N-(1′-(6-methyl-2-morpholinopyrimidin-4-yl)-1′,2′-dihydrospiro[cyclopropane-1,3′-pyrrolo[3,2-c]pyridin]-6′-yl)acetamide] | 10 to 100 nM | ≥ 1000 nM | – | –
3 | CC(=O)Nc1cc2c(cn1)C1(CC1)CN2c1cc(NCC2CC2)nc(C(C)(F)F)n1 [Example 154, N-(1′-(6-((cyclopropylmethyl)amino)-2-(1,1-difluoroethyl)pyrimidin-4-yl)-1′,2′-dihydrospiro[cyclopropane-1,3′-pyrrolo[3,2-c]pyridin]-6′-yl)acetamide trifluoroacetate] | ≤ 10 nM | ≤ 10 nM | – | –
4 | CC(=O)Nc1cc2c(cn1)C1(CC1)CN2c1cc(OC2CCN(C)C2)nc(C(C)(F)F)n1 (centres unmarked) [Example 359, N-(1′-(2-(1,1-difluoroethyl)-6-((1-methylpyrrolidin-3-yl)oxy)pyrimidin-4-yl)-1′,2′-dihydrospiro[cyclopropane-1,3′-pyrrolo[3,2-c]pyridin]-6′-yl)acetamide trifluoroacetate] | 10 to 100 nM | ≥ 1000 nM | – | –
5 | COC1(COc2cc(C)cc(N3CC4(CC4)c4cnc(NC(C)=O)cc43)n2)CCC1 [Example 351, N-(1′-(6-((1-methoxycyclobutyl)methoxy)-4-methylpyridin-2-yl)-1′,2′-dihydrospiro[cyclopropane-1,3′-pyrrolo[3,2-c]pyridin]-6′-yl)acetamide] | 100 to 1000 nM | ≥ 1000 nM | – | –
6 | CC(=O)Nc1cc2c(cn1)C1(CC1)CN2c1cc(C)cc(N2C[C@H]3CNC[C@H]3C2)n1 [Example 209, N-(1′-(6-((3aR,6aS)-hexahydropyrrolo[3,4-c]pyrrol-2(1H)-yl)-4-methylpyridin-2-yl)-1′,2′-dihydrospiro[cyclopropane-1,3′-pyrrolo[3,2-c]pyridin]-6′-yl)acetamide trifluoroacetate] | 100 to 1000 nM | ≥ 1000 nM | – | –
7 | CC(=O)Nc1cc2c(cn1)C1(CC1)CN2c1cc(C)nc(N2CCC(C)(O)C2)n1 (centres unmarked) [Example 236, N-(1′-(2-(3-hydroxy-3-methylpyrrolidin-1-yl)-6-methylpyrimidin-4-yl)-1′,2′-dihydrospiro[cyclopropane-1,3′-pyrrolo[3,2-c]pyridin]-6′-yl)acetamide] | 10 to 100 nM | ≥ 1000 nM | – | –
8 | CC(=O)Nc1cc2c(cn1)C1(CC1)CN2c1cc(C)cc(OCC23CC(C)(CO2)C3)n1 [Example 349, N-(1′-(4-methyl-6-((4-methyl-2-oxabicyclo[2.1.1]hexan-1-yl)methoxy)pyridin-2-yl)-1′,2′-dihydrospiro[cyclopropane-1,3′-pyrrolo[3,2-c]pyridin]-6′-yl)acetamide] | 100 to 1000 nM | ≥ 1000 nM | – | –
9 | CCn1cc(-c2cc(C)cc(N3CC4(CC4)c4cnc(NC(C)=O)cc43)n2)cn1 [Example 260, N-(1′-(6-(1-ethyl-1H-pyrazol-4-yl)-4-methylpyridin-2-yl)-1′,2′-dihydrospiro[cyclopropane-1,3′-pyrrolo[3,2-c]pyridin]-6′-yl)acetamide trifluoroacetate] | 10 to 100 nM | ≥ 1000 nM | – | –
10 | CC(=O)Nc1cc2c(cn1)C1(CC1)CN2c1cc(NC2CCOCC2)nc(C(C)(F)F)n1 [Example 155, N-(1′-(2-(1,1-difluoroethyl)-6-((tetrahydro-2H-pyran-4-yl)amino)pyrimidin-4-yl)-1′,2′-dihydrospiro[cyclopropane-1,3′-pyrrolo[3,2-c]pyridin]-6′-yl)acetamide] | ≤ 10 nM | 10 to 100 nM | – | –
11 | CC(=O)Nc1cc2c(cn1)C1(CC1)CN2c1cc(C)nc(OCCF)n1 [Example 288, N-(1′-(2-(2-fluoroethoxy)-6-methylpyrimidin-4-yl)-1′,2′-dihydrospiro[cyclopropane-1,3′-pyrrolo[3,2-c]pyridin]-6′-yl)acetamide] | ≤ 10 nM | 100 to 1000 nM | – | –
12 | CC(=O)Nc1cc2c(cn1)C1(CC1)CN2c1cc(C(C)F)nc(C(C)(F)F)n1 (centres unmarked) [Example 400, N-(1′-(2-(1,1-difluoroethyl)-6-(1-fluoroethyl)pyrimidin-4-yl)-1′,2′-dihydrospiro[cyclopropane-1,3′-pyrrolo[3,2-c]pyridin]-6′-yl)acetamide] | – | – | ≤ 10 nM | 10 to 100 nM
13 | COCC1CC(Oc2cc(C)cc(N3CC4(CC4)c4cnc(NC(C)=O)cc43)n2)C1 (centres unmarked) [Example 345, N-(1′-(6-(3-(methoxymethyl)cyclobutoxy)-4-methylpyridin-2-yl)-1′,2′-dihydrospiro[cyclopropane-1,3′-pyrrolo[3,2-c]pyridin]-6′-yl)acetamide trifluoroacetate] | 100 to 1000 nM | ≥ 1000 nM | – | –
14 | CC(=O)Nc1cc2c(cn1)C1(CC1)CN2c1cc(C)cc(OC2CCC(F)C2)n1 (centres unmarked) [Example 353, N-(1′-(6-((3-fluorocyclopentyl)oxy)-4-methylpyridin-2-yl)-1′,2′-dihydrospiro[cyclopropane-1,3′-pyrrolo[3,2-c]pyridin]-6′-yl)acetamide trifluoroacetate] | 100 to 1000 nM | ≥ 1000 nM | – | –
15 | CC(=O)Nc1cc2c(cn1)C1(CC1)CN2c1cc(C)nc(CCS(C)(=O)=O)n1 [Example 319, N-(1′-(6-methyl-2-(2-(methylsulfonyl)ethyl)pyrimidin-4-yl)-1′,2′-dihydrospiro[cyclopropane-1,3′-pyrrolo[3,2-c]pyridin]-6′-yl)acetamide] | 10 to 100 nM | ≥ 1000 nM | – | –
16 | CCCNc1cc(N2CC3(CC3)c3cnc(NC(C)=O)cc32)nc(C(C)(F)F)n1 [Example 156, N-(1′-(2-(1,1-difluoroethyl)-6-(propylamino)pyrimidin-4-yl)-1′,2′-dihydrospiro[cyclopropane-1,3′-pyrrolo[3,2-c]pyridin]-6′-yl)acetamide trifluoroacetate] | ≤ 10 nM | ≤ 10 nM | – | –
17 | CC(=O)Nc1cc2c(cn1)C1(CC1)CN2c1cccc(S(C)(=O)=O)n1 [Example 93, N-(1′-(6-(methylsulfonyl)pyridin-2-yl)-1′,2′-dihydrospiro[cyclopropane-1,3′-pyrrolo[3,2-c]pyridin]-6′-yl)acetamide] | ≤ 10 nM | ≤ 10 nM | – | –
18 | CCc1cc(N2CC3(CC3)c3cnc(NC(C)=O)cc32)nc(C)n1 [Example 314, N-(1′-(6-ethyl-2-methylpyrimidin-4-yl)-1′,2′-dihydrospiro[cyclopropane-1,3′-pyrrolo[3,2-c]pyridin]-6′-yl)acetamide] | 10 to 100 nM | ≥ 1000 nM | – | –
19 | COC1CCCN(c2cc(C)cc(N3CC4(CC4)c4cnc(NC(C)=O)cc43)n2)C1 (centres unmarked) [Example 188, N-(1′-(6-(3-methoxypiperidin-1-yl)-4-methylpyridin-2-yl)-1′,2′-dihydrospiro[cyclopropane-1,3′-pyrrolo[3,2-c]pyridin]-6′-yl)acetamide] | 100 to 1000 nM | ≥ 1000 nM | – | –
20 | CCOC(=O)c1cc(N2CC3(CC3)c3cnc(NC(C)=O)cc32)nc(C(C)(F)F)n1 [Example 291, Ethyl 6-(6′-acetamidospiro[cyclopropane-1,3′-pyrrolo[3,2-c]pyridin]-1′(2′H)-yl)-2-(1,1-difluoroethyl)pyrimidine-4-carboxylate] | ≤ 10 nM | 100 to 1000 nM | – | –
21 | CC(=O)Nc1cc2c(cn1)C1(CC1)CN2c1cc(C)cc(N2CC3CCN(C)C3C2)n1 (centres unmarked) [Example 277, N-(1′-(4-methyl-6-(1-methylhexahydropyrrolo[3,4-b]pyrrol-5(1H)-yl)pyridin-2-yl)-1′,2′-dihydrospiro[cyclopropane-1,3′-pyrrolo[3,2-c]pyridin]-6′-yl)acetamide trifluoroacetate] | 100 to 1000 nM | ≥ 1000 nM | – | –
22 | CC(=O)Nc1cc2c(cn1)C1(CC1)CN2c1cc(C2CCOC2)nc(C(C)(F)F)n1 (centres unmarked) [Example 297, N-(1′-(2-(1,1-difluoroethyl)-6-(tetrahydrofuran-3-yl)pyrimidin-4-yl)-1′,2′-dihydrospiro[cyclopropane-1,3′-pyrrolo[3,2-c]pyridin]-6′-yl)acetamide trifluoroacetate] | ≤ 10 nM | 100 to 1000 nM | – | –
23 | CC(=O)Nc1cc2c(cn1)C1(CC1)CN2c1cc(C)nc(C2CCOC2)n1 (centres unmarked) [Example 103, N-(1′-(6-methyl-2-(tetrahydrofuran-3-yl)pyrimidin-4-yl)-1′,2′-dihydrospiro[cyclopropane-1,3′-pyrrolo[3,2-c]pyridin]-6′-yl)acetamide] | ≤ 10 nM | 100 to 1000 nM | – | –
24 | CC(=O)Nc1cc2c(cn1)C1(CC1)CN2c1cc(C)cc(N2CCN(CCO)CC2)n1 [Example 406, N-(1′-(6-(4-(2-hydroxyethyl)piperazin-1-yl)-4-methylpyridin-2-yl)-1′,2′-dihydrospiro[cyclopropane-1,3′-pyrrolo[3,2-c]pyridin]-6′-yl)acetamide] | – | – | 100 to 1000 nM | ≥ 1000 nM
25 | CC(=O)Nc1cc2c(cn1)C1(CC1)CN2c1cc(NC2CC2C)nc(C(C)(F)F)n1 (centres unmarked) [Example 182, N-(1′-(2-(1,1-difluoroethyl)-6-((2-methylcyclopropyl)amino)pyrimidin-4-yl)-1′,2′-dihydrospiro[cyclopropane-1,3′-pyrrolo[3,2-c]pyridin]-6′-yl)acetamide trifluoroacetate] | ≤ 10 nM | 10 to 100 nM | – | –
